We go through 14 molecules from PubChem BioAssay AID2579 (University of Pittsburgh Molecular Library Screening Center, 2010).

Molecules are shown by their SMILES. Active and inactive are the calls of the source. The rule behind the calls is not given here.

Broadly, the IC50 is the concentration needed to halve the response being measured.

The target in this experiment is Glucose-6-phosphate 1-dehydrogenase (Leuconostoc mesenteroides) (UniProt P11411). In words: Leuconostoc G6PDH inhibition potency, SAR follow-up, counter-screen for TbHK1 inhibitor project, biochemical, analogue series, IC50 (AID 2579). Particulars: Purified L. mesenteroides G6PDH enzyme assay, counterscreen. Background: A counterscreen serves to expose hits that act by an unwanted route or on another target.
Glucose-6-phosphate 1-dehydrogenase (Leuconostoc mesenteroides), sequence (P11411 whole entry, looked up): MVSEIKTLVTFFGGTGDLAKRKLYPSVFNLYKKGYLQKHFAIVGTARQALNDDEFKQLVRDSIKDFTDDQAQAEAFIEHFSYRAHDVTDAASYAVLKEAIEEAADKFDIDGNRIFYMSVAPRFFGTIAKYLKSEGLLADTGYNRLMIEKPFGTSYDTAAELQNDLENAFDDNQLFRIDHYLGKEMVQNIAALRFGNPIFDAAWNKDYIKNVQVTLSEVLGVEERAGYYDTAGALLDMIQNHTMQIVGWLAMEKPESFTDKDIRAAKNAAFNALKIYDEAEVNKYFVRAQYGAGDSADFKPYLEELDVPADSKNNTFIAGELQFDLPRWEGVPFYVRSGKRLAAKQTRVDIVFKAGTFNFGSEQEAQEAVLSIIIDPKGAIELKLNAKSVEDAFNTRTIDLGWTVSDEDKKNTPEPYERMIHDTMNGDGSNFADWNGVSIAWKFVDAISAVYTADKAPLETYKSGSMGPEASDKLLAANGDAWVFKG
As to `Cc1cc(C(C#N)c2ccc(Cl)cc2)c(Cl)cc1NC(=O)c1cc(I)cc(I)c1O` (centres undefined), the IC50 was > 25 µM (inactive).
The same measure for `CC(C)(C)c1ccc(C(=O)Nc2cc(Cl)c(F)cc2C(=O)O)cc1`: > 25 µM (inactive); for `COc1ccc(C(=O)Nc2cc(Cl)c(Br)cc2C(=O)O)cc1`: > 25 µM (inactive).
As for `CC(C)(C)c1ccc(C(=O)Nc2cc(Br)ccc2C(=O)O)cc1`, the figure is > 25 µM (inactive); as for `CC1(c2ccc(C(=O)Nc3cc(Cl)ccc3C(=O)O)cc2)CC1`, > 25 µM (inactive); as for `COc1ccc(C(=O)Nc2cc(Cl)c(C)cc2C(=O)O)cc1`, > 25 µM (inactive).
The same measure for `CC(C)(C)c1ccc(C(=O)Nc2cc(Cl)ccc2-c2nn[nH]n2)cc1`: > 25 µM (inactive).
On to `O=c1c(O)c(-c2ccc(O)c(O)c2)oc2cc(O)cc(O)c12`, for which the IC50 was > 25 µM (inactive).
Regarding `CC(C)(C)c1ccc(C(=O)Nc2cc(Cl)ccc2O)cc1`, the IC50 was > 25 µM (inactive).
As for `CC(C)(C)c1ccc(C(=O)Nc2cc(Cl)c(Br)cc2C(=O)O)cc1`, the figure is > 25 µM (inactive); as for `CC(C)(C)c1ccc(C(=O)Nc2cc(Cl)c(Cl)cc2C(=O)O)cc1`, > 25 µM (inactive); as for `COc1ccc(N2C(=O)c3ccc(Cl)cc3C2=O)cc1`, > 25 µM (inactive).
For `COc1ccc(C(=O)Nc2cc(Cl)ccc2O)cc1`, the IC50 is > 25 µM (inactive).
Turning to `C=C(C)c1ccc(C(=O)Nc2cc(Cl)ccc2C(=O)O)cc1`, the IC50 is > 25 µM (inactive).
